Patent US20250361268A1, “NOVEL ANTI-INFLAMMATORY PEPTIDE AND USE THEREOF” (NOVACELL TECHNOLOGY INC., priority 2022, published 2025)
Peptide text beside a SMILES is read from it.

Legend:
[1] = target: T1, FPR2 (Homo sapiens, UniProt P25090); experiment: Change in calcium activity by peptide (Fura-2) in RBL cells overexpressing FPR2; format: cell-based; conditions: calcium activity (Fura-2), graded per Table 3, read-out: EC50 for [Ca^2+] FPR2
T1 construct: expressed in transfected cells; host or cells: RBL cells (RBL-FPR2)
T1 sequence (P25090 1-351): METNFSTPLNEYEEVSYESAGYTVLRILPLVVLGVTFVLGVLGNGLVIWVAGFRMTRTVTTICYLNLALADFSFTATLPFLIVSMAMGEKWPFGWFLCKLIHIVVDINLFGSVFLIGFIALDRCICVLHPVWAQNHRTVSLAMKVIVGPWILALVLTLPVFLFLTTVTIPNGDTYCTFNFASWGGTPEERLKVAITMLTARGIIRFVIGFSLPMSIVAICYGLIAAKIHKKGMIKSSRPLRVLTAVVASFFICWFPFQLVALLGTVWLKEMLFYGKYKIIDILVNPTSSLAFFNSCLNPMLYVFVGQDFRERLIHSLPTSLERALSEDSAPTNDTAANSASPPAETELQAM
Outline: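 Peptide-induced intracellular calcium change measured by Fura-2 fluorescence on a plate reader. Cells: RBL line overexpressing FPR2, dye-loaded 1 h at 37 °C then 30 min at RT in dark; peptides from 0.5 mM water/50% DMSO stocks, diluted in HBSS with 20 mM HEPES.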

[2] = target: T2, FPR1 (Homo sapiens, UniProt P21462); experiment: Change in calcium activity by peptide, FPR1 activation effect; format: cell-based; conditions: calcium activity (Fura-2), graded per Table 3, read-out: EC50 for [Ca^2+] FPR1
T2 sequence (P21462 1-350): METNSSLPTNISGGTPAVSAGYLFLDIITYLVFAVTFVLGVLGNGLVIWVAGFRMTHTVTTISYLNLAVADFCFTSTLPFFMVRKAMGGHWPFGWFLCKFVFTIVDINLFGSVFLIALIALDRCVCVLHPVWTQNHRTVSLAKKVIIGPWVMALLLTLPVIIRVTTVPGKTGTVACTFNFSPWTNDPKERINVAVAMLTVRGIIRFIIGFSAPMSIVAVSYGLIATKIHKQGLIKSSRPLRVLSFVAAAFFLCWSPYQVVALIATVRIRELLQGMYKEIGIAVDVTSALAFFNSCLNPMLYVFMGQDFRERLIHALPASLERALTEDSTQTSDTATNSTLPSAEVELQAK
Outline: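 Calcium flux induced by peptide addition was monitored on a FlexStation 3 plate reader. Before this, cells seeded a day earlier (3×10^5/well) took up the Fura-2 dye for 1 h at 37 °C plus 30 min dark at room temperature.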

[3] = system: RAW264.7 cell line; experiment: Cytokine inhibition ability: LPS-induced cytokine gene expression in RAW264.7 macrophages; format: cell-based, mouse; conditions: grade of reduction rate of gene expression, peptide 100 nM, LPS 200 ng/mL, 6 hours
Experimental: The present inventors observed the cytokine inhibition ability of the immunomodulatory peptide candidates prepared according to one example of the present invention. Specifically, to confirm whether the peptides reduce inflammatory responses in cells, changes in cytokine gene expression in cells upon inflammation was measured.
The present inventors used a RAW264.7 cell line, that is, mouse macrophages, and used lipopolysaccharide (LPS; Sigma-Aldrich, #L2630), which is the main component of a gram-negative bacterial cell wall, as a material causing an inflammatory response. A peptide that had been dissolved in water at 100 μM was prepared.
In the present experiment, the cells were cultured in a DMEM (Lonza, #BE12-604F) containing 10% FBS and 1% penicillin-streptomycin under conditions of 37° C. and 5% CO2.
The cells were plated in a 24-well plate (Costar, #3603) at a density of 2.5×10^5 cells/well. After 24 hours, the prepared cells were treated with the peptide at 100 nM. After incubation at 37° C. for 30 minutes, to induce inflammation, 200 ng/mL of LPS was treated. After incubation at 37° C. for 6 hours, the cells in a medium-free state were treated with TRIzol™ (Invitrogen, #15596018) to lyse the cells. Through the given experimental method, RNA was obtained, cDNA was produced using a reverse transcriptase (Promega, #M1705). Afterward, a cytokine expression level was measured using SYBR Green (Enzynomics, RT530) and mouse primers of each inflammatory cytokine gene (TNFα, IL-6, and IL-1β).

| SMILES | EC50 [1] [nM] | EC50 [2] [nM] | Cytokine inhibition ability IL-1β [3] | Cytokine inhibition ability IL-6 [3] | Cytokine inhibition ability TNFα [3] |
| --- | --- | --- | --- | --- | --- |
| CSCC[C@H](NC(=O)[C@H](CCCNC(=N)N)NC(C)=O)C(=O)N[C@@H](CCCNC(=N)N)C(=O)N[C@@H](Cc1ccc(O)cc1)C(=O)N[C@@H](Cc1c[nH]c2ccccc12)C(=O)N[C@@H](Cc1ccc(O)cc1)C(=O)N[C@H](CCSC)C(N)=O [Peptide 82] (HELM PEPTIDE1{[ac].R.M.R.Y.W.Y.[dM].[am]}$$$$V2.0) | < 10 | > 10000 | B (61%-80%) | D (21%-40%) | A (81%-100%) |
| CSCC[C@H](NC(=O)[C@H](CCCNC(=N)N)NC(C)=O)C(=O)N[C@@H](CCCNC(=N)N)C(=O)N[C@@H](Cc1ccc(O)cc1)C(=O)N[C@@H](CCCCN)C(=O)N[C@H](C(=O)N[C@H](CCSC)C(N)=O)C(C)C [Peptide 6] (HELM PEPTIDE1{[ac].R.M.R.Y.K.V.[dM].[am]}$$$$V2.0) | < 10 | > 10000 | A (81%-100%) | C (41%-60%) | A (81%-100%) |
| CSCC[C@H](NC(C)=O)C(=O)N[C@@H](CCCCN)C(=O)N[C@@H](Cc1ccc(O)cc1)C(=O)N[C@@H](Cc1c[nH]c2ccccc12)C(=O)N1CCC[C@H]1C(=O)N[C@H](CCSC)C(N)=O [Peptide 114] (HELM PEPTIDE1{[ac].M.K.Y.W.P.[dM].[am]}$$$$V2.0) | < 10 | 1000 to 10000 | B (61%-80%) | E (0%-20%) | A (81%-100%) |
| CSCC[C@H](NC(=O)[C@@H](N)CCCNC(=N)N)C(=O)N[C@@H](CCCNC(=N)N)C(=O)N[C@@H](Cc1ccc(O)cc1)C(=O)N[C@@H](Cc1c[nH]c2ccccc12)C(=O)N[C@@H](Cc1ccc(O)cc1)C(=O)N[C@H](CCSC)C(N)=O [Peptide 81] (HELM PEPTIDE1{R.M.R.Y.W.Y.[dM].[am]}$$$$V2.0) | < 10 | > 10000 | A (81%-100%) | C (41%-60%) | A (81%-100%) |
| CSCC[C@H](NC(C)=O)C(=O)N[C@@H](CCCNC(=N)N)C(=O)N[C@@H](Cc1ccc(O)cc1)C(=O)N[C@@H](CCCCN)C(=O)N1CCC[C@H]1C(=O)N[C@H](CCSC)C(N)=O [Peptide 55] (HELM PEPTIDE1{[ac].M.R.Y.K.P.[dM].[am]}$$$$V2.0) | < 10 | > 10000 | A (81%-100%) | B (61%-80%) | B (61%-80%) |
| CSCC[C@H](NC(C)=O)C(=O)N[C@@H](CCCCN)C(=O)N[C@@H](Cc1ccc(O)cc1)C(=O)N[C@@H](CCCCN)C(=O)N[C@H](C(=O)N[C@H](CCSC)C(N)=O)C(C)C [Peptide 18] (HELM PEPTIDE1{[ac].M.K.Y.K.V.[dM].[am]}$$$$V2.0) | < 10 | > 10000 | A (81%-100%) | D (21%-40%) | A (81%-100%) |
| CSCC[C@H](N)C(=O)N[C@@H](CCCCN)C(=O)N[C@@H](Cc1ccc(O)cc1)C(=O)N[C@@H](Cc1c[nH]c2ccccc12)C(=O)N1CCC[C@H]1C(=O)N[C@H](CCSC)C(N)=O [Peptide 113] (HELM PEPTIDE1{M.K.Y.W.P.[dM].[am]}$$$$V2.0) | < 10 | 1000 to 10000 | D (21%-40%) | B (61%-80%) | D (21%-40%) |
| CCCCCCCC(=O)N[C@@H](CCCNC(=N)N)C(=O)N[C@@H](CCSC)C(=O)N[C@@H](CCCNC(=N)N)C(=O)N[C@@H](Cc1ccc(O)cc1)C(=O)N[C@@H](CCCCN)C(=O)N[C@@H](Cc1ccc(O)cc1)C(=O)N[C@H](CCSC)C(N)=O [Peptide 40] (HELM PEPTIDE1{[CCCCCCCC(=O)[*:2]].R.M.R.Y.K.Y.[dM].[am]}$$$$V2.0) | 11 to 100 | > 10000 | A (81%-100%) | C (41%-60%) | B (61%-80%) |
| CSCC[C@H](NC(=O)[C@@H](N)CCCNC(=N)N)C(=O)N[C@@H](CCCNC(=N)N)C(=O)N[C@@H](Cc1ccc(O)cc1)C(=O)N[C@@H](CCCCN)C(=O)N[C@@H](Cc1ccc(O)cc1)C(=O)N[C@H](CCSC)C(N)=O [Peptide 38] (HELM PEPTIDE1{R.M.R.Y.K.Y.[dM].[am]}$$$$V2.0) | < 10 | > 10000 | A (81%-100%) | C (41%-60%) | B (61%-80%) |
| CCCC(=O)N[C@@H](CCSC)C(=O)N[C@@H](CCCCN)C(=O)N[C@@H](Cc1ccc(O)cc1)C(=O)N[C@@H](CCCCN)C(=O)N1CCC[C@H]1C(=O)N[C@H](CCSC)C(N)=O [Peptide 72] (HELM PEPTIDE1{[CCCC(=O)[*:2]].M.K.Y.K.P.[dM].[am]}$$$$V2.0) | 11 to 100 | > 10000 | B (61%-80%) | D (21%-40%) | B (61%-80%) |
| CCCCCCCC(=O)N[C@@H](CCSC)C(=O)N[C@@H](CCCCN)C(=O)N[C@@H](Cc1ccc(O)cc1)C(=O)N[C@@H](CCCCN)C(=O)N1CCC[C@H]1C(=O)N[C@H](CCSC)C(N)=O [Peptide 73] (HELM PEPTIDE1{[CCCCCCCC(=O)[*:2]].M.K.Y.K.P.[dM].[am]}$$$$V2.0) | 11 to 100 | > 10000 | B (61%-80%) | D (21%-40%) | B (61%-80%) |
| CCCC(=O)N[C@@H](CCSC)C(=O)N[C@@H](CCCCN)C(=O)N[C@@H](Cc1ccc(O)cc1)C(=O)N[C@@H](CCCCN)C(=O)N[C@H](C(=O)N[C@H](CCSC)C(N)=O)C(C)C [Peptide 19] (HELM PEPTIDE1{[CCCC(=O)[*:2]].M.K.Y.K.V.[dM].[am]}$$$$V2.0) | < 10 | > 10000 | A (81%-100%) | B (61%-80%) | B (61%-80%) |
| CCCC(=O)N[C@@H](CCSC)C(=O)N[C@@H](CCCCN)C(=O)N[C@@H](Cc1ccc(O)cc1)C(=O)N[C@@H](Cc1c[nH]c2ccccc12)C(=O)N1CCC[C@H]1C(=O)N[C@H](CCSC)C(N)=O [Peptide 115] (HELM PEPTIDE1{[CCCC(=O)[*:2]].M.K.Y.W.P.[dM].[am]}$$$$V2.0) | < 10 | 1000 to 10000 | B (61%-80%) | B (61%-80%) | C (41%-60%) |
| CCCCCCCC(=O)N[C@@H](CCSC)C(=O)N[C@@H](CCCCN)C(=O)N[C@@H](Cc1ccc(O)cc1)C(=O)N[C@@H](CCCCN)C(=O)N[C@H](C(=O)N[C@H](CCSC)C(N)=O)C(C)C [Peptide 20] (HELM PEPTIDE1{[CCCCCCCC(=O)[*:2]].M.K.Y.K.V.[dM].[am]}$$$$V2.0) | 11 to 100 | > 10000 | B (61%-80%) | B (61%-80%) | B (61%-80%) |
